Columns and labels:
[1] = EZ4U colorimetric cytotoxicity test, HEK293A; format: cell-based; details: human, HEK293A cells; intrinsic cytotoxicity, 3 days; read-out: HEK293A CC50
From the text: (§1) The low intrinsic cytotoxicity of the additional drug component in the clinically used anticancer cocktails with traditional drugs is very important for treatment. This approach in chemotherapy can reduce the potential resulting toxic load on the body in the case of a combined action of these inhibitors on the activity of several targets. […] The effects of the tested compounds on cell survival are shown on Figure 4 and the CC50 values for three cell lines are shown in Table 1. The intrinsic cytotoxicity of a number of the studied compounds is quite high, namely, they have close IC50 values against the TDP1 and CC50 values on one or several studied cell lines. Most of the compounds generally were more toxic for the HEK293FT and HeLa cell lines than for the HEK293A cell line (Table 1 and Figure 4). The cytotoxicity of the three leader compounds, 7g, 10a, and 7h, was quite high. […] Compound 10b was one of the least toxic among the ten tested compounds.
(§2) Cytotoxicity of the compounds was examined against human cell lines HEK293A (human embryonic kidney)—WT, TDP1 deficient (Tdp1-/-), PARP1 deficient (PARP1-/-), and HeLa (cervical cancer) using an EZ4U colorimetric test (Biomedica, Vienna, Austria). The HEK293A cell line was obtained from Thermo Fisher Scientific (Waltham, MA, USA), and the HeLa cell line was obtained from the Russian Cell Culture Collection (RCCC) Institute of Cytology RAS, St. Petersburg, Russia. The cells were grown in DMEM/F12 medium (Gibco, Thermo Fisher Scientific, Waltham, MA, USA), with 1x GlutaMAX (Gibco, Thermo Fisher Scientific, Waltham, MA, USA), 50 IU/mL penicillin, 50 μg/mL streptomycin (MP Biomedicals), and in the presence of 10% fetal bovine serum (Biolot, Saint-Petersburg, Russia) in a 5% CO2 atmosphere. Cells were grown in the presence of 1% DMSO in the control wells. After the formation of a 30–50% monolayer, the tested compounds were added to the medium, and the cell culture was monitored for 3 days. The values were normalized to their own control in each case. At least three independent experiments were carried out. The 50% cytotoxic concentration (CC50) was defined as the compound concentration that reduced the cell viability by 50% when compared to the untreated controls. The compound concentration that caused 50% cell growth inhibition was determined using OriginPro 8.6.0 software (OriginLab, Northampton, MA, USA). The measurements were carried out in three independent experiments.

[2] = Colorimetric cytotoxicity test, HEK293FT; format: cell-based; details: human, HEK293FT cells, intrinsic cytotoxicity
From the text: as §1, §2

TDP1 [3] = biological target: T1, TDP1 (Homo sapiens, UniProt Q9NUW8); experiment: Real-time fluorescence assay of TDP1 activity; format: biochemical; details: real-time fluorescent assay, 1.5 nM TDP1, 50 nM oligonucleotide; read-out: IC50 (TDP1)
T1 construct: made in house; host or cells: E. coli
From the text: We tested UA and all 14 newly synthesized UA derivatives for their TDP1 inhibitory properties by measuring their IC50 values using a real-time fluorescent assay. […] Compounds 10a,b are sulfoxide analogs of 7g,h.
Human recombinant tyrosyl-DNA phosphodiesterase 1 (TDP1) and human recombinant poly(ADP-ribose)-polymerase1 (PARP1) were expressed in the E. coli system and purified as described.
(§3) The biosensor (5′-[FAM] AAC GTC AGGGTC TTC C [BHQ]-3′) was synthesized in the Laboratory of Nucleic Acid Chemistry at the Institute of Chemical Biology and Fundamental Medicine (Novosibirsk, Russia) and was used for TDP1 enzyme activity real-time fluorescence detection. The reaction mixture (200 μL) contained a TDP1 reaction buffer (50 mM Tris-HCl, pH 8.0, 50 mM NaCl, and 7 mM β-mercaptoethanol), 50 nM oligonucleotide, varied concentrations of the tested compounds, and purified TDP1 in a final concentration 1.5 nM. The reaction mixtures were incubated at a constant temperature of 26 °C in a POLARstar OPTIMA fluorimeter (BMG LABTECH, GmbH, Ortenberg, Germany). Fluorescence intensity was measured (Ex485/Em520 nm) every 1 min for 10 min. The average values of the half maximal inhibitory concentration (IC50) were determined using an eleven-point concentration response curve and calculated using MARS Data Analysis 2.0 (BMG LABTECH). The 50% inhibitory concentration (IC50) was defined as the concentration of the compound that inhibited 50% of the enzyme activity when compared to the untreated controls. At least three independent experiments were carried out to obtain the IC50 values. To determine the kinetic parameters of the TDP1 enzymatic reaction, the apparent maximum rate of enzymatic reaction (Vmax), Michaelis constant (KM), possible inhibition mechanism, and steady-state kinetic experiments were carried out at 5 fixed concentrations of the substrate, with variation in the inhibitor concentrations. The standard reaction mixtures (200 μL) contained reaction buffer components; 50 nM, 100 nM, 200 nM, 500 nM, or 1000 nM substrate; an inhibitor; and 1.5 nM recombinant human TDP1. The initial kinetic curves were obtained in three independent experiments and statistically processed in OriginPro 8.6.0 (OriginLab, Northampton, MA, USA).

[4] = EZ4U colorimetric cytotoxicity test, HeLa; format: cell-based, human; details: human, HeLa cells; intrinsic cytotoxicity, compound alone, 3 days
From the text: as §1, §2

TDP1 [5] = biological target: T1, TDP1; experiment: Steady-state kinetics of the TDP1 reaction (Vmax, KM, type of inhibition); format: biochemical; design: Vmax: unit not given here; details: for Type of inhibition of TDP1 enzyme reaction: steady-state conditions, fall in both Vmax and KM with increasing inhibitor
From the text: The reversible enzyme inhibitors were classified as competitive, uncompetitive, non-competitive, or mixed, depending on the binding of the enzyme, to the enzyme–substrate complex (ES) or to the enzyme–substrate–inhibitor triple complex (ESI). The enzyme could bind the inhibitor at the different steps of catalysis (before or after the substrate) and at the substrate-binding site or another site. The effect of the inhibitor on enzymatic activity can be analyzed using graphical representations of the Michaelis–Menten equation. […] TDP1 has a catalytic pocket with a narrow positively charged cleft where it binds DNA and with a relatively large cleft that contains a mixed charge distribution for the TOP1 fragment binding. It is known that TDP1 hydrolyzes the DNA–TOP1 adducts via two coordinated nucleophilic attacks of two His residues (His263 and His493) with the covalent intermediate complex formation. The enzyme reaction catalyzed by TDP1 could be inhibited in two steps: the first one is the inhibition of the TDP1 binding to the DNA substrate (the nucleophilic attack of His263). The second step is releasing TDP1 from the transition complex (nucleophilic attack by a water molecule activated by His493). Inhibition of the second step prevents the release of the DNA 3′-phosphate product from the DNA–TDP1 complex. Spinocerebellar ataxia with axonal neuropathy (SCAN1) is a neurological disease that is caused by a TDP1 His493Arg mutation. This mutation prevents the second step of hydrolysis of the intermediate complex and the enzyme remains covalently bound to DNA [47]. The uncompetitive inhibitors also prevent the second step of the reaction, stabilizing the enzyme–DNA covalent complex, which can lead to the accumulation of the single-strand breaks in the cell.
as §3
Table S25 Dependence of TDP1 reaction values V max and K M on the concentration of inhibitors
[7g], mM V max Standard Error K M Standard Error
[7h], mM V max Standard Error K M Standard Error
[10a], mM V max Standard Error K M Standard Error
[10b], mM V max Standard Error K M Standard Error

TDP1 [6] = tested on: TDP1; design: method as in PMID 27933897, PMID 30076000, PMID 31619021, doi:10.1134/S1068162017010125, PMID 30396105; details: cited from earlier work
[7] = inhibitor 0.4 mM (so in the source)
[8] = inhibitor 0.8 mM (so in the source)
[9] = inhibitor 1.6 mM (so in the source)
[10] = inhibitor 3.2 mM (so in the source)
[11] = inhibitor 6.4 mM (so in the source)

T1 sequence (Q9NUW8 whole entry): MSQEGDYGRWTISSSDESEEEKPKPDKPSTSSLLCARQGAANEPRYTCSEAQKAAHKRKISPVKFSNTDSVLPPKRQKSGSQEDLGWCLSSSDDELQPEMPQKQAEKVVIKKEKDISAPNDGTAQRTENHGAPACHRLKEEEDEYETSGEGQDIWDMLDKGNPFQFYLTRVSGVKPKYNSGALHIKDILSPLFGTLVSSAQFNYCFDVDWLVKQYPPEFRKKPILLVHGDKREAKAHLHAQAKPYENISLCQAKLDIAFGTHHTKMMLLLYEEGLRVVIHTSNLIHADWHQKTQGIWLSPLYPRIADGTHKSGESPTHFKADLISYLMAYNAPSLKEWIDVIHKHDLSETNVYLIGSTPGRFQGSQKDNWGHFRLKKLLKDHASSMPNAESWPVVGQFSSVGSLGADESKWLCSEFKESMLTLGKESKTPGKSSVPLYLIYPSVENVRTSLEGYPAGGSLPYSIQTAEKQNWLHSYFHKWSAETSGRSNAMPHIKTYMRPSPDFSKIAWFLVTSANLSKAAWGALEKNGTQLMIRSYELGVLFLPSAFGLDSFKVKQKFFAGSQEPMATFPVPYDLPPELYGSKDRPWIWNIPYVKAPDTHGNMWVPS

Row | SMILES | CC50 at 3 days [1] [µM] | CC50 at 3 days [2] [µM] | IC50 (TDP1 [3]) [µM] | CC50 at 3 days [4] [µM] | also measured
1 | CC(=O)C1=C(O)C=C2Oc3c(C(=O)CSC(=S)N(C)C)c(O)c(C)c(O)c3[C@@]2(C)C1=O [7a, (2R)-4-acetyl-10-{2-[(dimethylcarbamothioyl)sulfanyl]acetyl}-5,11,13-trihydroxy-2,12-dimethyl-8-oxatricyclo [7.4.0.0^2,7]trideca-1(13),4,6,9,11-pentaen-3-one] | > 50 | > 50 | 5.4 ± 2.9 | 13 ± 0.5 | 
2 | CC(=O)C1=C(O)C=C2Oc3c(C(=O)CSC4=NCCS4)c(O)c(C)c(O)c3[C@@]2(C)C1=O [7b, (2R)-4-acetyl-10-[2-(4,5-dihydro-1,3-thiazol-2-ylsulfanyl)acetyl]-5,11,13-trihydroxy-2,12-dimethyl-8-oxatricyclo[7.4.0.0^2,7]trideca-1(13),4,6,9,11-pentaen-3-one] | > 50 | 16 ± 5 | 4.4 ± 1 | 11 ± 0.5 | 
3 | CC(=O)C1=C(O)C=C2Oc3c(C(=O)CSc4nnc(N)s4)c(O)c(C)c(O)c3[C@@]2(C)C1=O [7c, (2R)-4-acetyl-10-{2-[(5-amino-1,3,4-thiadiazol-2-yl)sulfanyl]acetyl}-5,11,13-trihydroxy-2,12-dimethyl-8-oxatricyclo[7.4.0. 0^2,7]trideca-1(13),4,6,9,11-pentaen-3-one] | > 50 | 35 ± 2 | 4.3 ± 0.5 | 33 ± 2 | 
4 | CC(=O)C1=C(O)C=C2Oc3c(C(=O)CSc4nnc[nH]4)c(O)c(C)c(O)c3C2(C)C1=O (stereo not shown) [7d] |  |  | 25.2 ± 6.5 |  | 
5 | CC(=O)C1=C(O)C=C2Oc3c(C(=O)CSc4nc5ccccc5o4)c(O)c(C)c(O)c3C2(C)C1=O (stereo not shown) [7e] | 26 ± 2 | 4.5 ± 1 | 3.2 ± 0.5 | 2.9 ± 0.2 | 
6 | CC(=O)C1=C(O)C=C2Oc3c(C(=O)CSc4nc5ccccc5[nH]4)c(O)c(C)c(O)c3[C@@]2(C)C1=O [7f, (2R)-4-acetyl-10-[2-(1H-1,3-benzodiazol-2-ylsulfanyl)acetyl]-5,11,13-trihydroxy-2,12-dimethyl-8-oxatricyclo[7.4.0.0^2,7]trideca-1(13),4,6,9,11-pentaen-3-one] | > 50 | 10 ± 2 | 2.4 ± 1 | 13 | 
7 | CC(=O)C1=C(O)C=C2Oc3c(C(=O)CSc4nc5ccccc5s4)c(O)c(C)c(O)c3C2(C)C1=O (stereo not shown) [7g] | 3.5 ± 0.3 | 3 ± 1 | 1.7 ± 0.6 | 2 ± 0.6 | Vmax (TDP1 [5]; [7]): 35.4; Vmax (TDP1 [5]; [8]): 25.6; Vmax (TDP1 [5]; [9]): 23.0; Vmax (TDP1 [5]; [10]): 19.4; Vmax (TDP1 [5]; [11]): 10.9; Type of inhibition of TDP1 enzyme reaction (TDP1 [5]): uncompetitive
8 | CC(=O)C1=C(O)C=C2Oc3c(C(=O)CSc4ccc(Cl)cc4)c(O)c(C)c(O)c3C2(C)C1=O (stereo not shown) [7h] | 10 ± 2 | 4 ± 1 | 2.2 ± 0.5 | 2.5 ± 0.5 | Vmax (TDP1 [5]; [7]): 31.0; Vmax (TDP1 [5]; [8]): 26.7; Vmax (TDP1 [5]; [9]): 18.5; Vmax (TDP1 [5]; [10]): 15.3; Vmax (TDP1 [5]; [11]): 11.2; Type of inhibition of TDP1 enzyme reaction (TDP1 [5]): uncompetitive
9 | CC(=O)C1=C(O)C=C2Oc3c(C(=O)CSc4ccccn4)c(O)c(C)c(O)c3[C@@]2(C)C1=O [7i, (2R)-4-acetyl-5,11,13-trihydroxy-2,12-dimethyl-10-[2-(pyridin-2-ylsulfanyl)acetyl]-8-oxatricyclo[7.4.0. 0^2,7]trideca-1(13),4,6,9,11-pentaen-3-one] |  |  | 11.9 ± 0.4 |  | 
10 | CC(=O)C1=C(O)C=C2Oc3c(C(=O)CSc4ncccn4)c(O)c(C)c(O)c3[C@@]2(C)C1=O [7j, (2R)-4-acetyl-5,11,13-trihydroxy-2,12-dimethyl-10-[2-(pyrimidin-2-ylsulfanyl)acetyl]-8-oxatricyclo[7.4.0. 0^2,7]trideca-1(13),4,6,9,11-pentaen-3-one] |  |  | 16.9 ± 2.4 |  | 
11 | CC(=O)C1=C(O)C=C2Oc3c(C(=O)CSc4ncccc4C(=O)O)c(O)c(C)c(O)c3C2(C)C1=O (stereo not shown) [7k] |  |  | 19.6 ± 2.8 |  | 
12 | CC(=O)C1=C(O)C=C2Oc3c(C(=O)C[S+]([O-])c4ccc(Cl)cc4)c(O)c(C)c(O)c3[C@@]2(C)C1=O (stereo partly shown) [10b] | > 50 | 20 ± 3 |  | 27 ± 2 | Vmax (TDP1 [5]; inhibitor 0.2 mM (so in the source)): 18.7; Vmax (TDP1 [5]; [7]): 10.7; Vmax (TDP1 [5]; [8]): 8.5; Vmax (TDP1 [5]; [9]): 6.3; Type of inhibition of TDP1 enzyme reaction (TDP1 [5]): uncompetitive
13 | CC(=O)c1c(O)c(C)c(O)c2c1OC1=CC(=O)/C(=C(/C)NCCCc3cc(C(C)(C)C)c(O)c(C(C)(C)C)c3)C(=O)[C@@]12C [compound 2] |  |  |  |  | IC50 (TDP1 [6]): 0.16 µM
14 | CC(=O)C1=C(O)C=C2Oc3c4c(c(C)c(O)c3[C@@]2(C)C1=O)O/C(=C\c1ccc(Br)cc1)C4=O [compound 3] |  |  |  |  | IC50 (TDP1 [6]): 0.15 µM
15 | CC(=O)C1=C(O)C=C2Oc3c(C(=O)CSC#N)c(O)c(C)c(O)c3[C@@]2(C)C1=O [compound 5] |  |  |  |  | IC50 (TDP1 [6]): 1.16 µM
